Experiments:
[1] = Antiproliferative activity against human SF539 cells assessed as growth inhibition after 48 hrs by sulforhodamine B assay; format: functional; details: SF-539, 48 h
[2] = Antiproliferative activity against human SW620 cells assessed as growth inhibition after 48 hrs by sulforhodamine B assay; format: functional; details: SW-620, 48 h; for CC50: read-out: LC50 (the source's name)
KM12 [3] = assay: Antiproliferative activity against human KM12 cells assessed as growth inhibition after 48 hrs by sulforhodamine B assay; format: functional; details: KM12, 48 h
NCI-H226 = assay: Antiproliferative activity against human NCI-H226 cells assessed as growth inhibition after 48 hrs by sulforhodamine B assay; format: functional; details: NCI-H226, 48 h; for CC50: read-out: LC50 (the source's name)
[4] = Antiproliferative activity against human HCT15 cells assessed as cell growth at 10^-7 M after 48 hrs by sulforhodamine B assay; format: functional; details: HCT-15, 48 h, read-out: Activity
HT-29 = assay: Antiproliferative activity against human HT-29 cells assessed as cell growth at 10^-7 M after 48 hrs by sulforhodamine B assay; format: functional; details: HT-29, 48 h, read-out: Activity
KM12 [5] = assay: Antiproliferative activity against human KM12 cells assessed as cell growth at 10^-7 M after 48 hrs by sulforhodamine B assay; format: functional; details: KM12, 48 h, read-out: Activity
[6] = Antiproliferative activity against human SW620 cells assessed as cell growth at 10^-7 M after 48 hrs by sulforhodamine B assay; format: functional; details: SW-620, 48 h, read-out: Activity
MDA-MB-468 = assay: Antiproliferative activity against human MDA-MB-468 cells assessed as cell growth at 10^-6 M after 48 hrs by sulforhodamine B assay; format: functional; details: MDA-MB-468, 48 h, read-out: Activity
MDA-MB-435 = assay: Antiproliferative activity against human MDA-MB-435 cells assessed as cell growth at 10^-7 M after 48 hrs by sulforhodamine B assay; format: functional; details: MDA-MB-435, 48 h, read-out: Activity
[7] = Antiproliferative activity against human OVCAR4 cells assessed as cell growth at 10^-7 M after 48 hrs by sulforhodamine B assay; format: functional; details: OVCAR-4, 48 h, read-out: Activity
[8] = Antiproliferative activity against human OVCAR5 cells assessed as cell growth at 10^-7 M after 48 hrs by sulforhodamine B assay; format: functional; details: OVCAR-5, 48 h, read-out: Activity
[9] = Antiproliferative activity against human TK10 cells assessed as cell growth at 10^-7 M after 48 hrs by sulforhodamine B assay; format: functional; details: TK-10, 48 h, read-out: Activity
CYP2C9 = CYP2C9 (Homo sapiens, UniProt P11712); assay: Inhibition of recombinant human CYP2C9 assessed as remaining enzyme activity using CYP2C9 green as substrate at 10 uM after 5 mins in presence of NADP by fluorescence plate reader analysis; format: ADME; details: recombinant human CYP2C9, probe CYP2C9 green, read-out: Activity
CYP2C9, sequence (P11712 whole entry): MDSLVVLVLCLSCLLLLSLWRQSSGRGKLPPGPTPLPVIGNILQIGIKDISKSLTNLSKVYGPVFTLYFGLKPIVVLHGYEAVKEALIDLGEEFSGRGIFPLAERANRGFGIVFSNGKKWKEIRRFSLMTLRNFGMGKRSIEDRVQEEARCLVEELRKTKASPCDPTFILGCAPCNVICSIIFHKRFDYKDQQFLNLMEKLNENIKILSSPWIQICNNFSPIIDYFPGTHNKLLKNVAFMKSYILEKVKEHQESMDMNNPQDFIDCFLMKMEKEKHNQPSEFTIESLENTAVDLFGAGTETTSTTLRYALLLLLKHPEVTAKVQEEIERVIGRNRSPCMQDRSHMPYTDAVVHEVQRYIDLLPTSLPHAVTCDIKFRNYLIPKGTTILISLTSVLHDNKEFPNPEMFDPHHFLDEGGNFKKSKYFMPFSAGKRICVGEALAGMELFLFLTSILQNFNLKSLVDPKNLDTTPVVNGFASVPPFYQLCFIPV

[10] = molecular target: Voltage-gated inwardly rectifying potassium channel KCNH2 (Homo sapiens, UniProt Q12809); assay: Inhibition of human ERG assessed as reduction in channel current by automated patch-clamp electrophysiology assay
Voltage-gated inwardly rectifying potassium channel KCNH2, sequence (Q12809 whole entry): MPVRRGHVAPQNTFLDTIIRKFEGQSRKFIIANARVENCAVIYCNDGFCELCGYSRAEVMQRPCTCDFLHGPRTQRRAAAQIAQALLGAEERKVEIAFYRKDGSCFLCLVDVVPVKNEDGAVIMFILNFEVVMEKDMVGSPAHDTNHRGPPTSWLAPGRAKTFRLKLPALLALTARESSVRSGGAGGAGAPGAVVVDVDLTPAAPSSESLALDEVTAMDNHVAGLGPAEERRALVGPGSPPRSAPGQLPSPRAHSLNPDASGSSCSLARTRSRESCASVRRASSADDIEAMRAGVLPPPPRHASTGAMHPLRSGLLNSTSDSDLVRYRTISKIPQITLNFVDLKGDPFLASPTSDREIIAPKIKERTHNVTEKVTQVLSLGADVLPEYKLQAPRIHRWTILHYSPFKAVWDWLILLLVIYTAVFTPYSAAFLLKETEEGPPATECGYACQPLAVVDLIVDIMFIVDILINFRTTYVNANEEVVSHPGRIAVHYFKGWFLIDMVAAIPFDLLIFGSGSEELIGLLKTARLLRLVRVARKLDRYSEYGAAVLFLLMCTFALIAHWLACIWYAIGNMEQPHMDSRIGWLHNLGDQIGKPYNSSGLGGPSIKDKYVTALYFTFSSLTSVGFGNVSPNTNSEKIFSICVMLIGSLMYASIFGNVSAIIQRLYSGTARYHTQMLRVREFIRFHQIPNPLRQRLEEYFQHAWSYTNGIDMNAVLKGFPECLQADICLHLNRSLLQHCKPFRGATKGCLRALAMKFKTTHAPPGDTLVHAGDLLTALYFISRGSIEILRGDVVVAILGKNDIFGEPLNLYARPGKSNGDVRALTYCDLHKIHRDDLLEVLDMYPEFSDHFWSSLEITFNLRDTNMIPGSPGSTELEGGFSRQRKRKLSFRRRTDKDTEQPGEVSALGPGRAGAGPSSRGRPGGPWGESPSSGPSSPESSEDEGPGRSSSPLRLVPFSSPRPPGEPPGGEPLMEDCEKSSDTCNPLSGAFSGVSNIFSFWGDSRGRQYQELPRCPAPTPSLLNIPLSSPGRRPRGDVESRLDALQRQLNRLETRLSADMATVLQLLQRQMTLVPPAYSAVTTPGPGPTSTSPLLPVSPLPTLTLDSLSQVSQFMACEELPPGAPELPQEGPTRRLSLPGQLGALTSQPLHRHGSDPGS

[11] = Antiproliferative activity against human HL-60(TB) cells assessed as cell growth at 10^-8 M after 48 hrs by sulforhodamine B assay; format: functional; details: HL-60, 48 h, read-out: Activity
NCI-H460 = assay: Antiproliferative activity against human NCI-H460 cells assessed as cell growth at 10^-8 M after 48 hrs by sulforhodamine B assay; format: functional; details: NCI-H460, 48 h, read-out: Activity
[12] = Antiproliferative activity against human HCC2998 cells assessed as cell growth at 10^-8 M after 48 hrs by sulforhodamine B assay; format: functional; details: HCC 2998, 48 h, read-out: Activity
[13] = Antiproliferative activity against human SNB19 cells assessed as cell growth at 10^-8 M after 48 hrs by sulforhodamine B assay; format: functional; details: SNB-19, 48 h, read-out: Activity
T47D = assay: Antiproliferative activity against human T47D cells assessed as cell growth at 10^-7 M after 48 hrs by sulforhodamine B assay; format: functional; details: read-out: Activity
K562 = assay: Antiproliferative activity against human K562 cells assessed as cell growth at 10^-6 M after 48 hrs by sulforhodamine B assay; format: functional; details: K562, 48 h, read-out: Activity
A549 = assay: Antiproliferative activity against human A549/ATCC cells assessed as cell growth at 10^-6 M after 48 hrs by sulforhodamine B assay; format: functional; details: A549, 48 h, read-out: Activity
[14] = Antiproliferative activity against human HCC2998 cells assessed as cell growth at 10^-6 M after 48 hrs by sulforhodamine B assay; format: functional; details: HCC 2998, 48 h, read-out: Activity
[15] = Antiproliferative activity against human HOP92 cells assessed as cell growth at 10^-4 M after 48 hrs by sulforhodamine B assay; format: functional; details: HOP-92, 48 h, read-out: Activity
NCI-H23 = assay: Antiproliferative activity against human NCI-H23 cells assessed as cell growth at 10^-4 M after 48 hrs by sulforhodamine B assay; format: functional; details: NCI-H23, 48 h, read-out: Activity
[16] = Antiproliferative activity against human HCC2998 cells assessed as cell growth at 10^-4 M after 48 hrs by sulforhodamine B assay; format: functional; details: HCC 2998, 48 h, read-out: Activity
[17] = Antiproliferative activity against human LOXIMVI cells assessed as cell growth at 10^-4 M after 48 hrs by sulforhodamine B assay; format: functional; details: LOX IMVI, read-out: Activity
SK-MEL-5 [18] = assay: Antiproliferative activity against human SK-MEL-5 cells assessed as cell growth at 10^-8 M after 48 hrs by sulforhodamine B assay; format: functional; details: SK-MEL-5, 48 h, read-out: Activity
[19] = Antiproliferative activity against human PC3 cells assessed as cell growth at 10^-8 M after 48 hrs by sulforhodamine B assay; format: functional; details: PC-3, 48 h, read-out: Activity
MDA-MB-231 = assay: Antiproliferative activity against human MDA-MB-231 cells assessed as cell growth at 10^-8 M after 48 hrs by sulforhodamine B assay; format: functional; details: MDA-MB-231, 48 h, read-out: Activity
[20] = Antiproliferative activity against human OVCAR5 cells assessed as cell growth at 10^-6 M after 48 hrs by sulforhodamine B assay; format: functional; details: OVCAR-5, 48 h, read-out: Activity
SK-MEL-5 [21] = assay: Antiproliferative activity against human SK-MEL-5 cells assessed as cell growth at 10^-4 M after 48 hrs by sulforhodamine B assay; format: functional; details: SK-MEL-5, 48 h, read-out: Activity
[22] = Antiproliferative activity against human OVCAR5 cells assessed as cell growth at 10^-4 M after 48 hrs by sulforhodamine B assay; format: functional; details: OVCAR-5, 48 h, read-out: Activity
[23] = Antiproliferative activity against human DU145 cells assessed as cell growth at 10^-4 M after 48 hrs by sulforhodamine B assay; format: functional; details: DU-145, 48 h, read-out: Activity

Compound: CNC(=O)c1cc(Oc2ccc(NC(=O)Nc3ccc(Cl)c(C(F)(F)F)c3)cc2)ccn1 [SORAFENIB]
- TGI [1]: 10 µM
- GI50 [2]: 2.51 µM
- TGI [2]: 12.6 µM
- CC50 [2]: 39.8 µM
- TGI (KM12 [3]): 7.94 µM
- GI50 (NCI-H226): 2 µM
- TGI (NCI-H226): 7.94 µM
- CC50 (NCI-H226): 31.6 µM

Compound: CNC(=O)c1cc(Oc2ccc3nc(NC(=O)Nc4cc(C(F)(F)F)cc(C(F)(F)F)c4)sc3c2)ccn1
- growth at 0.1 µM [4]: 100%
- growth at 0.1 µM (HT-29): 97%
- growth at 0.1 µM (KM12 [5]): 95%
- growth at 0.1 µM [6]: 113%
- growth at 1 µM (MDA-MB-468): 22%
- growth at 0.1 µM (MDA-MB-435): 95%
- growth at 0.1 µM [7]: 94%
- growth at 0.1 µM [8]: 98%
- growth at 0.1 µM [9]: 109%
- GI50 [1]: 1.24 µM
- LC50 [1]: 6.33 µM
- TGI [1]: 2.8 µM
- GI50 [2]: 1.56 µM
- TGI [2]: 3.29 µM
- CC50 [2]: 6.97 µM
- GI50 (KM12 [3]): 0.444 µM
- LC50 (KM12 [3]): 7.96 µM
- TGI (KM12 [3]): 2 µM
- GI50 (NCI-H226): 1.45 µM
- TGI (NCI-H226): 3.57 µM
- CC50 (NCI-H226): 8.79 µM
- activity at 5 min, 10 µM (CYP2C9): 88.2%
- IC50 [10]: > 100 µM
- growth at 0.01 µM [11]: 110%
- growth at 0.01 µM (NCI-H460): 102%
- growth at 0.01 µM [12]: 93%
- growth at 0.01 µM [13]: 99%
- growth at 0.1 µM (T47D): 89%
- growth at 1 µM (K562): 44%
- growth at 1 µM (A549): 68%
- growth at 1 µM [14]: 66%
- growth at 100 µM [15]: -77%
- growth at 100 µM (NCI-H23): -52%
- growth at 100 µM [16]: -74%
- growth at 100 µM [17]: -62%
- growth at 0.01 µM (SK-MEL-5 [18]): 97%
- growth at 0.01 µM [19]: 101%
- growth at 0.01 µM (MDA-MB-231): 103%
- growth at 1 µM [20]: 77%
- growth at 100 µM (SK-MEL-5 [21]): -72%
- growth at 100 µM [22]: -74%
- growth at 100 µM [23]: -89%
